# Source: patent US4603142A, “Cholesterol lowering method of use” (Wisconsin Alumni Research Foundation, priority 1984, dated 1986)
# Legend:
# Fatty Acid Synthetase [1] = test: Hepatic fatty acid synthetase activity in 13-week-old WLH male chickens; assay type: in vivo, chicken; conditions: 20 ppm in corn diet, fed four weeks, liver
# From the text: These responses were attributed to the presence in the small grains of relatively high concentrations of beta-D-glucans and pentosans. A long-standing interest in lipid metabolism prompted us to examine certain lipogenic and cholesterolgenic enzymes in the tissues of these birds. Methods used for handling blood samples, preparing subcellular fractions of liver and assay procedures for beta-hydroxy-beta-methylglutaryl coenzyme A (HMG Co-A) reductase, fatty acid synthetase (FAS), plasma cholesterol and triglycerides and the statistical treatment of the data have been described [Qureshi AA et al. (1980): Regulation of lipid metabolism in chicken livers by dietary cereals, J Nutr 110:388-393].
# Cholesterol inhibitor I was re-chromatographed by HPLC and the UV absorption spectrum obtained. Maximum absorption occurred at 292 nm. This purified fraction was used for high resolution mass spectrometric analysis. Several scans were made using ionization temperatures from 90-180 degrees Centigrade to increase the possibility of detecting impurities. […] The results shown on Table 3 confirm those previously recorded for petroleum ether solubles of HPBF and cholestrol inhibitor I. In a final experiment, the effects of cholestrol inhibitor I and lemon grass oil on hepatocyte HMG Co-A reductase and FAS activities were tested. […]
# expressed as mean ± SD; N = 8 chickens per group; HMGCoA reductase = […]
# Fatty Acid Synthetase [2] = test: In vitro fatty acid synthetase activity in isolated hepatocytes of chicken; assay type: cell-based; conditions: incubation 15 minutes; for Fatty Acid Synthetase: means of two replicates
# From the text: These observed effects on lipogensis and cholesterogenesis could be attributed to the chemical constituents of HPBF, but clearly could not be attributed to the water insoluble plant fibers because they were not present in the latter feeding trials. Moreover, these effects were also obtained in vitro using isolated hepatocytes from chickens and rats. […] Proc. 42:1973 (Abstr.)]. Conditions for the in vitro evaluation of the solvent extracts have been described [Qureshi AA et al. (1983): Inhibition of cholesterol and fatty acid biosynthesis in liver enzymes and chicken hepatocytes by polar fractions of garlic, Lipids 18:343-348].
# Cholesterol inhibitor I was re-chromatographed by HPLC and the UV absorption spectrum obtained. Maximum absorption occurred at 292 nm. This purified fraction was used for high resolution mass spectrometric analysis. Several scans were made using ionization temperatures from 90-180 degrees Centigrade to increase the possibility of detecting impurities. The high resolution mass spectrometric analysis and measurements of different peaks gave a molecular ion peak at m/e 424 and main peaks at m/e 385, 205 and 165 corresponding to C29 H44 O2 (molecular formula) C25 H36 O2, C13 H17 O2 and C10 H13 O2 moieties, respectively, which are characteristic fragmentation moieties for d-alpha-tocotrienol. Lemon grass oil is a rich source of d-alpha-tocotrienol. This product and cholesterol inhibitor I at 20 ppm were compared with the petroleum ether soluble fraction of HPBF (20% equivalent HPBF) in a group of older male White Leghorn chickens (Table 3). The results shown on Table 3 confirm those previously recorded for petroleum ether solubles of HPBF and cholestrol inhibitor I. In a final experiment, the effects of cholestrol inhibitor I and lemon grass oil on hepatocyte HMG Co-A reductase and FAS activities were tested. Both components tested in the concentration range 5-100 microgram/ml, produced a concentration-dependent suppression of HMG Co-A reductase and concentration-dependent enhancement of FAS activity (Table 4).
# ^1 Tenweek-old female chickens were fed standard cornsoy diet. They
# were fasted for 48 hrs. and refed 72 hrs. prior to the preparation of
# ^2 Incubation period was 15 minutes. Values represent means of two
# replicates within incubation set.
# ^4 nmoles of NADPH oxidized per minute per mg of cytosolic fraction.
smiles,measurement,setting,value
"CC(C)=CCC/C(C)=C/CC/C(C)=C/CC[C@]1(C)CCc2c(C)c(O)c(C)c(C)c2O1 [Cholesterol inhibitor I, 2,5,7,8-tetramethyl-2 (4,8, 12-trimethyltrideca-3,7, 11-trienyl)chroman-6-ol]","Fatty Acid Synthetase, percentage of control",Fatty Acid Synthetase [1],111 Percentage of respective contr
same,Fatty Acid Synthetase,"Fatty Acid Synthetase [1]; mean ± SD, N = 8",292 ± 9 nmoles of NADPH oxidized per m
same,"Fatty Acid Synthetase, percentage of control",Fatty Acid Synthetase [2]; 5 μg/ml,122 Percentage of respective contr
same,Fatty Acid Synthetase,Fatty Acid Synthetase [2]; 5 μg/ml,88 nmoles of NADPH oxidized per m
same,"Fatty Acid Synthetase, percentage of control",Fatty Acid Synthetase [2]; 10 μg/ml,135 Percentage of respective contr
same,Fatty Acid Synthetase,Fatty Acid Synthetase [2]; 10 μg/ml,97 nmoles of NADPH oxidized per m
same,"Fatty Acid Synthetase, percentage of control",Fatty Acid Synthetase [2]; 15 μg/ml,156 Percentage of respective contr
same,Fatty Acid Synthetase,Fatty Acid Synthetase [2]; 15 μg/ml,112 nmoles of NADPH oxidized per m
same,"Fatty Acid Synthetase, percentage of control",Fatty Acid Synthetase [2]; 20 μg/ml,175 Percentage of respective contr
same,Fatty Acid Synthetase,Fatty Acid Synthetase [2]; 20 μg/ml,126 nmoles of NADPH oxidized per m
same,"Fatty Acid Synthetase, percentage of control",Fatty Acid Synthetase [2]; 25 μg/ml,188 Percentage of respective contr
same,Fatty Acid Synthetase,Fatty Acid Synthetase [2]; 25 μg/ml,135 nmoles of NADPH oxidized per m
same,"Fatty Acid Synthetase, percentage of control",Fatty Acid Synthetase [2]; 50 μg/ml,188 Percentage of respective contr
same,Fatty Acid Synthetase,Fatty Acid Synthetase [2]; 50 μg/ml,148 nmoles of NADPH oxidized per m
same,"Fatty Acid Synthetase, percentage of control",Fatty Acid Synthetase [2]; 100 μg/ml,214 Percentage of respective contr
same,Fatty Acid Synthetase,Fatty Acid Synthetase [2]; 100 μg/ml,154 nmoles of NADPH oxidized per m
